Assay results published in US20240239854A1, “ANTIMICROBIAL PEPTIDES AND MODIFICATIONS THEREOF” (Donald Danforth Plant Science Center, priority 2022, published 2024).
In brackets after ≈: the same amount, converted by molar mass. Where two headings read alike, the source gives them in different places. Positions of bridges follow the written chain, without caps; N, C: chain ends. Non-standard residues stand in square brackets, D forms with d. Residues, ends and D or L forms follow the SMILES beside them. Dab = NCC[C@H](N)C(=O)O

Experiments:
B. cinerea [1] = test: Semi-in planta drop inoculation assay on detached leaves of N. benthamiana, gray mold (Example 4); assay type: in vivo; conditions: for Reduction of gray mold symptoms at 3 and 6 μM / Reduction of gray mold symptoms at 1.5 μM: drop inoculation assay; for Reduction of gray mold symptoms at 3 and 6 μM: peptide 3 μM and 6 μM; for Reduction of gray mold symptoms at 1.5 μM: peptide 1.5 μM
Botrytis cinerea T-4 = conditions: for MIC (μM) SFM: Table 18, SFM; for MIC (μM) (SFM + 2 mM CaCl2): Table 18, SFM + 2 mM CaCl2; for MIC (μM) (SFM + 100 mM KCl): Table 18, SFM + 100 mM KCl; for MIC (μM) (SFM + 100 mM NaCl): Table 18, SFM + 100 mM NaCl
B. cinerea [2] = test system: B. cinerea
F. oxysporum = test: Antifungal MIC assay in SFM culture media (Example 1); assay type: cell-based; conditions: Table 2; SFM culture media
[3] = test system: Zymoseptoria tritici IPO323; assay type: cell-based
Botrytis cinerea T4 = assay type: cell-based
[4] = test system: Fusarium graminearum PH-1; assay type: cell-based; conditions: MIC Day 1; 96-well plate, resazurin cell viability
[5] = Table 4, B. cinerea, SFM + 2 mM CaCl2
[6] = Table 10, SFM + 2 mM CaCl2, values repeat Table 4 (B. cinerea)

## CC[C@H](C)[C@H](NC(=O)[C@H](CCCNC(=N)N)NC(=O)[C@H](CS)NC(=O)[C@H](CCCNC(=N)N)NC(=O)CNC(=O)[C@@H](N)CO)C(=O)N[C@@H](CC(C)C)C(=O)N[C@@H](Cc1ccccc1)C(=O)N[C@@H](CCCNC(=N)N)C(=O)N[C@@H](CS)C(=O)N[C@@H](Cc1ccccc1)C(=O)N[C@@H](CS)C(=O)N[C@H](C(=O)N[C@@H](CCCCN)C(=O)N[C@@H](CC(N)=O)C(=O)N[C@@H](CS)C(N)=O)[C@@H](C)O [GMA1C_V1] (H-SGRCRILFRCFCTKNC-NH2; N-terminus assumed)
B. cinerea [1]
  Reduction of gray mold symptoms at 3 and 6 μM: failed to reduce disease symptoms

## CC[C@H](C)[C@@H]1NC(=O)[C@H](CCCNC(=N)N)NC(=O)[C@@H](NC(=O)[C@H](CCCNC(=N)N)NC(=O)CNC(=O)[C@@H](N)CO)CSSC[C@@H](C(N)=O)NC(=O)[C@H](CC(N)=O)NC(=O)[C@H](CCCCN)NC(=O)[C@H]([C@@H](C)O)NC(=O)[C@H](Cc2c[nH]c3ccccc23)NC(=O)[C@H](Cc2ccccc2)NC(=O)[C@H](Cc2c[nH]c3ccccc23)NC(=O)[C@H](CCCNC(=N)N)NC(=O)[C@H](Cc2ccccc2)NC(=O)[C@H](CC(C)C)NC1=O [GMA1C_V2] (H-SGRCRILFRWFWTKNC-NH2; disulfide 4-16; N-terminus assumed)
B. cinerea [1]
  Reduction of gray mold symptoms at 1.5 μM: more effective than GMA1C_V1
  Reduction of gray mold symptoms at 3 and 6 μM: completely abrogated gray mold symptoms
Botrytis cinerea T-4
  MIC (μM) SFM: 1.5 to 3 µM
  MIC (μM) (SFM + 2 mM CaCl2): 3 µM
  MIC (μM) (SFM + 100 mM KCl): >12 µM
  MIC (μM) (SFM + 100 mM NaCl): 3 µM

## CC[C@H](C)[C@@H]1NC(=O)[C@H](CCCNC(=N)N)NC(=O)[C@@H](NC(=O)[C@H](CCCNC(=N)N)NC(=O)CNC(=O)[C@@H](N)CO)CSSC[C@@H](C(N)=O)NC(=O)[C@H](CC(N)=O)NC(=O)[C@H](CCCCN)NC(=O)[C@H]([C@@H](C)O)NC(=O)[C@H](Cc2ccccc2)NC(=O)[C@H](Cc2ccc(O)cc2)NC(=O)[C@H](Cc2c[nH]c3ccccc23)NC(=O)[C@H](CCCNC(=N)N)NC(=O)[C@H](Cc2ccccc2)NC(=O)[C@H](CC(C)C)NC1=O [GMA1C_V3] (H-SGRCRILFRWYFTKNC-NH2; disulfide 4-16; N-terminus assumed)
Botrytis cinerea T-4
  MIC (μM) SFM: 1.5 µM (≈ 3.07 µg/mL)
  MIC (μM) (SFM + 2 mM CaCl2): 6 µM
  MIC (μM) (SFM + 100 mM KCl): >12 µM
  MIC (μM) (SFM + 100 mM NaCl): 3 µM

## C[C@@H](O)[C@H](NC(=O)[C@H](CS)NC(=O)[C@H](Cc1ccccc1)NC(=O)[C@H](CS)NC(=O)[C@H](CCCNC(=N)N)NC(=O)[C@H](CCCNC(=N)N)NC(=O)[C@H](CCCNC(=N)N)NC(=O)[C@H](Cc1ccccc1)NC(=O)CNC(=O)[C@H](CCCNC(=N)N)NC(=O)[C@H](CS)NC(=O)[C@H](CCCNC(=N)N)NC(=O)CN)C(=O)N[C@H](C(=O)N[C@@H](Cc1c[nH]cn1)C(=O)N[C@@H](CS)C(N)=O)[C@@H](C)O [GMA4AC] (H-GRCRGFRRRCFCTTHC-NH2; N-terminus and C-terminus assumed)
F. graminearum
  MIC (μM) Fusarium graminearum: 6 µM (≈ 11.8 µg/mL)

## C[C@@H](O)[C@H](NC(=O)[C@H](CS)NC(=O)[C@H](Cc1ccccc1)NC(=O)[C@H](CS)NC(=O)[C@H](CCCNC(=N)N)NC(=O)[C@H](CCCNC(=N)N)NC(=O)[C@H](CCCNC(=N)N)NC(=O)[C@H](Cc1ccccc1)NC(=O)CNC(=O)[C@H](CCCNC(=N)N)NC(=O)[C@H](CS)NC(=O)[C@H](CCCNC(=N)N)NC(=O)CNC(=O)CN)C(=O)N[C@H](C(=O)N[C@@H](Cc1c[nH]cn1)C(=O)N[C@@H](CS)C(N)=O)[C@@H](C)O [GMA4C_AC] (H-GGRCRGFRRRCFCTTHC-NH2; N-terminus assumed)
B. cinerea [2]; B. cinerea, 100 mM NaCl or 100 mM KCl
  Retention of antifungal activity in presence of cations: retain their antifungal activity
B. cinerea [2]; [5]
  SFM + 2 mM CaCl2 MIC: >6 (a few μM
B. cinerea [2]; [6]
  SFM + 2 mM CaCl2 MIC: >6 (a μM
F. graminearum
  F. graminearum MIC: 3 µM
  MIC (μM) Fusarium graminearum: 3 µM (≈ 6.05 µg/mL)
  MIC Values (μM) against F. graminearum: 6 µM (≈ 12.1 µg/mL)
F. oxysporum
  F. oxysporum MIC: 6 μuM

## NCC[C@H](NC(=O)CNC(=O)[C@@H](N)Cc1ccccc1)C(=O)N[C@@H](CS)C(=O)N[C@@H](CCN)C(=O)NCC(=O)N[C@@H](Cc1ccccc1)C(=O)N[C@@H](CCN)C(=O)N[C@@H](CCN)C(=O)N[C@@H](CCN)C(=O)N[C@@H](CS)C(=O)N[C@@H](Cc1ccccc1)C(=O)N[C@@H](CS)C(=O)N[C@@H](Cc1c[nH]c2ccccc12)C(=O)N[C@@H](CCN)C(=O)N[C@@H](Cc1c[nH]c2ccccc12)C(=O)N[C@@H](CS)C(=O)O [GMA4C_V5, FG(Dab)C(Dab)GF(Dab)(Dab)(Dab)CFCW(Dab)WC] (H-FG[Dab]C[Dab]GF[Dab][Dab][Dab]CFCW[Dab]WC-OH; N-terminus assumed)
B. cinerea [2]; [5]
  SFM + 2 mM CaCl2 MIC: >6 (very μM
B. cinerea [2]; [6]
  SFM + 2 mM CaCl2 MIC: >6 (very μM

## CC[C@H](C)[C@H](NC(=O)[C@H](CCCNC(=N)N)NC(=O)[C@@H](NC(=O)[C@H](Cc1c[nH]c2ccccc12)NC(=O)[C@H](Cc1ccccc1)NC(=O)[C@H](Cc1c[nH]c2ccccc12)NC(=O)[C@H](CCCNC(=N)N)NC(=O)[C@H](CCCNC(=N)N)NC(=O)[C@H](CCCNC(=N)N)NC(=O)[C@H](Cc1ccccc1)NC(=O)CNC(=O)[C@H](CCCCN)NC(=O)[C@H](CS)NC(=O)[C@H](CCCNC(=N)N)NC(=O)CNC(=O)CN)[C@@H](C)O)C(=O)N[C@@H](CS)C(N)=O [GMA4C_V6A] (H-GGRCKGFRRRWFWTRIC-NH2; N-terminus assumed)
B. cinerea [2]
  B. cinerea MIC: 0.75 µM
  MIC (μM) Botrytis cinerea: 0.75 µM (≈ 1.64 µg/mL)
  MIC Values (μM) against B. cinerea: 0.75 µM (≈ 1.64 µg/mL)
  SFM + 2 mM CaCl2 MIC: 3 to 6 µM
  SFM + 100 mM KCl MIC: 1.5 to 3 µM
  SFM + 100 mM NaCl MIC: 0.75 to 1.5 µM
  SFM MIC: 1.5 µM
B. cinerea [2]; in vitro, low cationic conditions, B. cinerea
  Antifungal activity relative to the wild-type GMA4C_AC control: four-fold increase

## CC(C)C[C@@H]1NC(=O)[C@@H](NC(=O)[C@H](C)NC(=O)CN)CSSC[C@@H](C(=O)N[C@@H](Cc2ccc(O)cc2)C(N)=O)NC(=O)[C@H](Cc2c[nH]cn2)NC(=O)[C@H](CCCNC(=N)N)NC(=O)[C@H](Cc2ccc(O)cc2)NC(=O)[C@H](Cc2ccc(O)cc2)NC(=O)[C@H](Cc2c[nH]c3ccccc23)NC(=O)[C@H](Cc2ccccc2)NC(=O)[C@H](Cc2c[nH]c3ccccc23)NC(=O)CNC(=O)[C@H](Cc2ccc(O)cc2)NC(=O)[C@H](Cc2c[nH]cn2)NC(=O)[C@H](CCCCN)NC(=O)[C@H](CO)NC(=O)[C@H](Cc2c[nH]cn2)NC(=O)[C@H](CCCNC(=N)N)NC(=O)[C@H](CC(N)=O)NC(=O)[C@H](CCCCN)NC1=O [GMAOe1C_V3] (H-GACLKNRHSKHYGWFWYYRHCY-NH2; disulfide 3-21; N-terminus assumed)
B. cinerea [1]
  Reduction of gray mold symptoms at 1.5 μM: more effective than GMAOe1C_V4 or GMAOe1C_WT
Botrytis cinerea T-4
  MIC (μM) SFM: 1.5 µM (≈ 4.31 µg/mL)
  MIC (μM) (SFM + 2 mM CaCl2): 3 to 6 µM
  MIC (μM) (SFM + 100 mM KCl): 6 to 12 µM
  MIC (μM) (SFM + 100 mM NaCl): 2 to 3 µM

## CC(C)C[C@@H]1NC(=O)[C@@H](NC(=O)[C@H](C)NC(=O)CN)CSSC[C@@H](C(=O)N[C@@H](Cc2ccc(O)cc2)C(N)=O)NC(=O)[C@H](Cc2c[nH]cn2)NC(=O)[C@H](CCCNC(=N)N)NC(=O)[C@H](Cc2ccc(O)cc2)NC(=O)[C@H](Cc2ccc(O)cc2)NC(=O)[C@H](Cc2c[nH]c3ccccc23)NC(=O)[C@H](Cc2ccccc2)NC(=O)[C@H](Cc2ccccc2)NC(=O)CNC(=O)[C@H](Cc2ccc(O)cc2)NC(=O)[C@H](Cc2c[nH]cn2)NC(=O)[C@H](CCCCN)NC(=O)[C@H](CO)NC(=O)[C@H](Cc2c[nH]cn2)NC(=O)[C@H](CCCNC(=N)N)NC(=O)[C@H](CC(N)=O)NC(=O)[C@H](CCCCN)NC1=O [GMAOe1C_V4] (H-GACLKNRHSKHYGFFWYYRHCY-NH2; disulfide 3-21; N-terminus assumed)
Botrytis cinerea T-4
  MIC (μM) SFM: 1.5 µM (≈ 4.25 µg/mL)
  MIC (μM) (SFM + 2 mM CaCl2): 6 to 12 µM
  MIC (μM) (SFM + 100 mM KCl): 6 to 12 µM
  MIC (μM) (SFM + 100 mM NaCl): 6 µM

## CC(C)C[C@H](NC(=O)[C@H](CS)NC(=O)[C@H](C)NC(=O)CN)C(=O)N[C@@H](CCCCN)C(=O)N[C@@H](CC(N)=O)C(=O)N[C@@H](CCCNC(=N)N)C(=O)N[C@@H](Cc1c[nH]cn1)C(=O)N[C@@H](CO)C(=O)N[C@@H](CCCCN)C(=O)N[C@@H](Cc1c[nH]cn1)C(=O)N[C@@H](Cc1ccc(O)cc1)C(=O)NCC(=O)N[C@@H](CS)C(=O)N[C@@H](Cc1ccc(O)cc1)C(=O)N[C@@H](CS)C(=O)N[C@@H](Cc1ccc(O)cc1)C(=O)N[C@@H](Cc1ccc(O)cc1)C(=O)N[C@@H](CCCNC(=N)N)C(=O)N[C@@H](Cc1c[nH]cn1)C(=O)N[C@@H](CS)C(=O)N[C@@H](Cc1ccc(O)cc1)C(N)=O [GMAOe1C_WT] (H-GACLKNRHSKHYGCYCYYRHCY-NH2; N-terminus assumed)
B. cinerea [1]; detached N. benthamiana leaves, peptide 1.5, 3 and 6 μM, 48 h after inoculation
  Reduction of gray mold disease symptoms (lesion sizes): only effective at 6 μM

B1: PD91.1.1: Setaria viridis wild-type defensin SEQ ID NO: 578 with N-terminal alanine, expressed in Pichia pastoris (protein, listed as Setaria viridis)
chain: AYMCTTQNRFFHGRCVNNLNCASSCVHGRLGTGGHCATRKRSAADPGVDIDWVWNRRICVCVFQC
modifications: N-terminal alanine
[3]
  Z. tritici IPO323 MIC Day 1: 6 µM
  Z. tritici IPO323 MIC Day 7: >6 µM
  Z. tritici IPO323 MIC Day 14: >6 µM
Botrytis cinerea T4
  B. cinerea T4 MIC Day1: >12 µM
[4]
  F. graminearum PH-1 MIC Day1: >12 µM

B2: PD127.1.1: wild-type defensin-like protein SEQ ID NO: 732 with N-terminal alanine, expressed in Pichia pastoris (protein, listed as Potentilla micrantha)
chain: GACPLVQKRSKTWSGFCGSSNNCDKQCRTWEKAKHGACHATGDLKGTPRLKLRSCHARRSKDH
modifications: N-terminal alanine added
[3]
  Z. tritici IPO323 MIC Day 1: >12 µM
  Z. tritici IPO323 MIC Day 7: >12 µM
  Z. tritici IPO323 MIC Day 14: >12 µM
Botrytis cinerea T4
  B. cinerea T4 MIC Day1: >12 µM
[4]
  F. graminearum PH-1 MIC Day1: >12 µM
